Measurements published in patent US9447086B2, “6-amino acid heteroaryldihydropyrimidines for the treatment and prophylaxis of hepatitis B virus infection” (priority 2012, dated 2016).
Converted amounts (≈) assume the structure as drawn. Like-named read-outs stand apart in the source and are kept apart here.

Legend:
HBV [1] = assay: Anti-HBV activity in vitro in HepG2.2.15 cells (extracellular HBV DNA by qPCR); format: cell-based, Hepatitis B virus; conditions: Hepatitis B virus
Source text: (§1) HepG2.2.15 and HepDE19 are stably-transfected cell lines containing the HBV genome. Both cell lines are derived from the hepatoblastoma cell line Hep G2 (American Type Culture Collection, ATCC® HB-8065™) by the published procedures described in references: MA Selles et al. Proc. Natl. Acad. Sci. USA 1987, 84, 1005-1009 and H Guo et al. Journal of Virology 2007, 81, 12472-12484, respectively. Both cell lines were maintained in Dulbecco's modified Eagle's medium (DMEM)-F12 medium supplemented with 10% fetal bovine serum, 100 U/mL penicillin, 100 μg/mL streptomycin, and 0.5 mg/mL of G418.
While HepG2.2.15 cells constitutively support HBV replication and production of virus particles, HepDE19 cells are inducible by tetracycline. Addition of 1 μg/mL tetracycline in culture medium suppresses HBV replication in HepDE19 cells, whereas switching to tetracycline-free medium resumes this process.
HepG2.2.15 cells were seeded into 96-well plates (3×10^4 cells in 100 μl media per well) and incubated overnight at 37° C. The test compounds were serially half-log diluted in DMSO, then diluted 100 times in culture media. 100 μL diluted compounds were added into the plates to reach 0.5% final concentration of DMSO in every well. Five days after compound treatment, culture supernatant was collected for further analysis.
For quantitative PCR detection of extracellular HBV DNA, 100 μL culture supernatant was collected and processed in MagNA Pure 96 Nucleic Acid Purification System (Roche Applied Science) for viral DNA extraction. The extracted samples were subjected to HBV DNA quantification by qPCR.
The compounds of the present invention were tested for their capacity to inhibit a HBV activity and activation as described herein.

HBV [2] = assay: Selectivity index (CC50 value/EC50 value); format: cell-based, Hepatitis B virus
Source text: Based on FDA guidance, in order to support clinical testing in humans, the assessment of acceptable risk-benefit has to be achieved by providing clear evidence of in vitro antiviral activity (EC50) and cytotoxicity (CC50). It is important to establish that an investigational product has antiviral activity at concentrations that can be achieved in vivo without inducing toxic effects to cells. Furthermore, in a cell culture model, apparent antiviral activity of an investigational product can be the result of host cell death after exposure to the product. The relative effectiveness of the compound in inhibiting viral replication compared to inducing cell death is defined as the selectivity index (CC50 value/EC50 value). It is desirable to have a high selectivity index giving maximum antiviral activity with minimal cell toxicity.
The relative effectiveness of the compound in inhibiting viral replication compared to inducing cell death is defined as the selectivity index (CC50 value/EC50 value). It is desirable to have a high selectivity index giving maximum antiviral activity with minimal cell toxicity.

[3] = Lyophilisation solubility assay (Lysa); format: physicochemical; conditions: phosphate buffer, pH 6.5, aqueous buffer, thermodynamic from solid
Experimental: The aqueous solubility is an important physico-chemical property that plays a significant role in various physical and biological processes. It is desirable to have good solubility which enables good permeability and gastric and intestinal absorption, linear dose proportionality, less PK variability, and easy formulation for PD/PK studies. […] Lyophilisation solubility assay (Lysa) is a well adopted high throughput assay to measure compound solubility in industry.
Samples are prepared in duplicate from 10 mM DMSO stock solutions. After evaporation of DMSO with a centrifugal vacuum evaporator, the residue is solved in 0.05 M phosphate buffer (pH 6.5), stirred for one hour and shaken for two hours. After one night, the solutions is filtered using a microtiter filter plate and the filtrate and its 1/10 dilution are then analyzed by direct UV measurement or by HPLC-UV. […] The results are in μg/mL.

[4] = Cytotoxicity (CC50) in HepDE19 cells, CCK-8 cell viability; format: cell-based; conditions: human, HepDE19 cells; read-out: CC50
Source text: as §1
Five days after treatment, cell viability was measured by addition of 20 μL of CCK-8 reagent. Two hours after incubation at 37° C., the absorbance at wavelengths of 450 nm and 630 nm (OD450 and OD630) was recorded by a plate reader.

[5] = Metabolic stability study in human microsome; format: in vitro ADME
Experimental: Human Microsomes were preincubated with test compound for 10 min at 37° C. in 100 mM phosphate buffer, pH 7.4. The reactions were initiated by adding NADPH or NADPH regenerating system to give a final incubation volume of 400 μL. For NADPH system, the final incubations contained 1 μM test compound, 0.5 mg/mL liver microsomal protein, 1 mM NADPH in 100 mM phosphate buffer, pH 7.4. For the NADPH regenerating system, the final incubations contained 1 μM test compound, 0.5 mg/mL liver microsomal protein, 3 mM glucose 6-phosphate, 1 mM NADP, 3 mM MgCl2 and 0.05 mg/mL glucose 6-phosphate dehydrogenase in 100 mM phosphate buffer, pH 7.4. After incubation times of 0, 3, 6, 9, 15 and 30 minutes at 37° C., 50 μL samples was removed and transferred to 150 μL methanol solution which was maintained at 4° C. containing 2 μM tolbutamide (internal standard) to terminating the reaction. Following precipitation and centrifugation, the amount of compound remaining in the samples were determined by LC-MS/MS. Controls of no NADPH or NADPH regenerating system at zero and 30 min were also prepared and analyzed.

[6] = HepG2.2.15 cells, in-house data, read-out: EC50

## COC(=O)C1=C(CN2CC(F)(F)C[C@H]2C(=O)O)NC(c2nc(C(C)C)cs2)=N[C@H]1c1ccc(F)cc1Cl [Example 28, (R)-6-((S)-2-Carboxy-4,4-difluoro-pyrrolidin-1-ylmethyl)-4-(2-chloro-4-fluoro-phenyl)-2-(4-isopropyl-thiazol-2-yl)-1,4-dihydro-pyrimidine-5-carboxylic acid methyl ester]
HBV [1]; [6]
  EC50: 4.4 nM
HBV [2]
  Selectivity index (CC50/EC50): 7045
[3]
  solubility thermodynamic: 247 µg/mL (≈ 443 µM)
[4]
  CC50 at 5 days: 31000 nM

## CCOC(=O)C1=C(CN2CCO[C@H](C)[C@H]2C(=O)O)NC(c2nccs2)=N[C@H]1c1ccc(F)c(F)c1 [Example 112, (2R,3S)-4-[(S)-6-(3,4-Difluoro-phenyl)-5-ethoxycarbonyl-2-thiazol-2-yl-3,6-dihydro-pyrimidin-4-ylmethyl]-2-methyl-morpholine-3-carboxylic acid]
HBV [1]; [6]
  EC50: 5.2 nM
HBV [2]
  Selectivity index (CC50/EC50): 14123
[4]
  CC50 at 5 days: 73000 nM
[5]
  Human Hepatic Clearance: 1.95 mL/min/kg

## COC(=O)C1=C(CN2CCO[C@H](C)[C@H]2C(=O)O)NC(c2nccs2)=N[C@H]1c1ccccc1Br [Example 119, (2R,3S)-4-[(R)-6-(2-Bromo-phenyl)-5-methoxycarbonyl-2-thiazol-2-yl-3,6-dihydro-pyrimidin-4-ylmethyl]-2-methyl-morpholine-3-carboxylic acid]
HBV [1]; [6]
  EC50: 3 nM
HBV [2]
  Selectivity index (CC50/EC50): >33333
[4]
  CC50 at 5 days: > 100000 nM
[5]
  Human Hepatic Clearance: 0.85 mL/min/kg

## CCOC(=O)C1=C(CN2CC(F)(F)C[C@H]2C(=O)O)NC(c2nccs2)=N[C@H]1c1ccc(C#N)cc1 [Example 48, (S)-6-((S)-2-Carboxy-4,4-difluoro-pyrrolidin-1-ylmethyl)-4-(4-cyano-phenyl)-2-thiazol-2-yl-1,4-dihydro-pyrimidine-5-carboxylic acid ethyl ester]
HBV [1]; [6]
  EC50: 28 nM
[3]
  solubility thermodynamic: > 635 µg/mL
[5]
  Human Hepatic Clearance: 3.12 mL/min/kg

## CCOC(=O)C1=C(CN2CCOC[C@H]2C(=O)O)NC(c2nccs2)=N[C@H]1c1ccc(Cl)cc1Cl [Example 39, (S)-4-[(R)-6-(2,4-Dichloro-phenyl)-5-ethoxycarbonyl-2-thiazol-2-yl-3,6-dihydro-pyrimidin-4-ylmethyl]-morpholine-3-carboxylic acid]
HBV [1]; HepG2.2.15
  EC50: 1.1 nM
[3]
  solubility thermodynamic: > 654 µg/mL
[5]
  Human Hepatic Clearance: 7.18 mL/min/kg

## COC(=O)C1=C(CN2CC(F)(F)C[C@H]2C(=O)O)NC(c2cc(Cl)cs2)=N[C@H]1c1ccc(F)cc1Cl [Example 23, (R)-6-((S)-2-Carboxy-4,4-difluoro-pyrrolidin-1-ylmethyl)-4-(2-chloro-4-fluoro-phenyl)-2-(4-chloro-thiophen-2-yl)-1,4-dihydro-pyrimidine-5-carboxylic acid methyl ester]
HBV [1]; [6]
  EC50: 25 nM
[3]
  solubility thermodynamic: 172 µg/mL (≈ 314 µM)
[5]
  Human Hepatic Clearance: 8.8 mL/min/kg

## COC(=O)C1=C(CN2CCOC[C@H]2C(=O)O)NC(c2nc(C)cn2C)=NC1c1ccc(F)cc1Cl (stereo in doubt) [Example 92, (S)-4-[(S)-6-(2-Chloro-4-fluoro-phenyl)-2-(1,4-dimethyl-1H-imidazol-2-yl)-5-methoxycarbonyl-3,6-dihydro-pyrimidin-4-ylmethyl]-morpholine-3-carboxylic acid]
HBV [1]; [6]
  EC50: 14 nM
[3]
  solubility thermodynamic: > 602 µg/mL
[5]
  Human Hepatic Clearance: 1.26 mL/min/kg

## CCCOC(=O)C1=C(CN2CCOC[C@H]2C(=O)O)NC(c2nccs2)=N[C@H]1c1ccc(F)cc1Cl [Example 99, (S)-4-[6-(2-Chloro-4-fluoro-phenyl)-5-propoxycarbonyl-2-thiazol-2-yl-3,6-dihydro-pyrimidin-4-ylmethyl]-morpholine-3-carboxylic acid]
HBV [1]; [6]
  EC50: 12 nM
[3]
  solubility thermodynamic: > 677 µg/mL
[5]
  Human Hepatic Clearance: 2.13 mL/min/kg

## CCOC(=O)C1=C(CN2CCOC[C@H]2C(=O)O)NC(c2nccs2)=N[C@H]1c1ccccc1I [Example 129, (3S)-4-[[(4R)-5-Ethoxycarbonyl-4-(2-iodophenyl)-2-(1,3-thiazol-2-yl)-1,4-dihydropyrimidin-6-yl]methyl]morpholine-3 carboxylic acid]
HBV [1]; [6]
  EC50: 7.6 nM
HBV [2]
  Selectivity index (CC50/EC50): >13158
[4]
  CC50 at 5 days: > 100000 nM
[5]
  Human Hepatic Clearance: 4.25 mL/min/kg

## COC(=O)C1=C(CN2C[C@H](C(=O)O)CC(F)(F)C2)NC(c2nccs2)=N[C@H]1c1ccc(F)cc1Cl [Example 14, (R)-6-((R)-5-Carboxy-3,3-difluoro-piperidin-1-ylmethyl)-4-(2-chloro-4-fluoro-phenyl)-2-thiazol-2-yl-1,4-dihydro-pyrimidine-5-carboxylic acid methyl ester]
HBV [1]; [6]
  EC50: 41 nM
[3]
  solubility thermodynamic: > 644 µg/mL
[5]
  Human Hepatic Clearance: 1.41 mL/min/kg

## COC(=O)C1=C(CN2CC(F)(F)C[C@H]2C(=O)O)NC(c2ncccc2C)=N[C@H]1c1ccc(F)cc1Cl [Example 24, (R)-6-((S)-2-Carboxy-4,4-difluoro-pyrrolidin-1-ylmethyl)-4-(2-chloro-4-fluoro-phenyl)-2-(3-methyl-pyridin-2-yl)-1,4-dihydro-pyrimidine-5-carboxylic acid methyl ester]
HBV [1]; [6]
  EC50: 26 nM
[3]
  solubility thermodynamic: 656 µg/mL (≈ 1250 µM)
[5]
  Human Hepatic Clearance: 3.19 mL/min/kg

## CCOC(=O)C1=C(CN2CCOC[C@H]2C(=O)O)NC(c2nccs2)=N[C@H]1c1cc(F)cc(Cl)c1 [Example 125, (3S)-4-[[(4S)-4-(3-Chloro-5-fluorophenyl)-5 ethoxycarbonyl-2-(1,3-thiazol-2-yl)-1,4-dihydropyrimidin-6-yl]methyl]morpholine-3 carboxylic acid]
HBV [1]; [6]
  EC50: 30 nM
[3]
  solubility thermodynamic: > 636 µg/mL
[5]
  Human Hepatic Clearance: 1.32 mL/min/kg

## COC(=O)C1=C(CN2C[C@H](C(=O)O)CC(F)(F)C2)NC(c2nc(C)cs2)=N[C@H]1c1ccc(F)cc1Cl [Example 80, (R)-6-((R)-5-Carboxy-3,3-difluoro-piperidin-1-ylmethyl)-4-(2-chloro-4-fluoro-phenyl)-2-(4-methyl-thiazol-2-yl)-1,4-dihydro-pyrimidine-5-carboxylic acid methyl ester]
HBV [1]; [6]
  EC50: 27 nM
[3]
  solubility thermodynamic: 518 µg/mL (≈ 954 µM)
[5]
  Human Hepatic Clearance: 4.27 mL/min/kg

## COC(=O)C1=C(CN2CCSCC2C(=O)O)NC(c2nccs2)=N[C@H]1c1ccc(F)cc1Cl (stereo in doubt) [Example 91, (3S)-4-[[(4R)-4-(2-Chloro-4-fluoro-phenyl)-5-methoxycarbonyl-2-thiazol-2-yl-1,4-dihydropyrimidin-6-yl]methyl]thiomorpholine-3-carboxylic acid]
HBV [1]; [6]
  EC50: 38 nM
[3]
  solubility thermodynamic: 584 µg/mL (≈ 1140 µM)
[5]
  Human Hepatic Clearance: 1.62 mL/min/kg
